From PubChem BioAssay AID2744 (NMMLSC, 2010) come the findings set out here.

Active and inactive are the calls of the source.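 The calls were made as follows: active = fitted half-maximal concentration for changing reporter fluorescence at or below a set limit; inactive = the rest.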

Chain of Citrate synthase, peroxisomal (Saccharomyces cerevisiae (strain ATCC 204508 / S288c)) (P08679 whole entry, looked up): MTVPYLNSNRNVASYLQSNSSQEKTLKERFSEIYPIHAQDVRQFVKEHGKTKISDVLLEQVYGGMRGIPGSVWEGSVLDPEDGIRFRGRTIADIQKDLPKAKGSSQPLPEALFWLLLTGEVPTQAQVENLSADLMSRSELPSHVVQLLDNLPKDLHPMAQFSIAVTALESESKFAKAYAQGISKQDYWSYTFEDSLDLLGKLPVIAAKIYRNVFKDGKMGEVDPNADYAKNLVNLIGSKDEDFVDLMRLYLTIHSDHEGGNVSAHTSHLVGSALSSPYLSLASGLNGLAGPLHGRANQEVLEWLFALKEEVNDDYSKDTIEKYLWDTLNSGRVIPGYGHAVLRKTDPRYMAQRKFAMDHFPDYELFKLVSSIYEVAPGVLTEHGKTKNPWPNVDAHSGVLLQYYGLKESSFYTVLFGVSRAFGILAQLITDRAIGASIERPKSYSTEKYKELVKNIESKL

One test addresses Citrate synthase, peroxisomal (Saccharomyces cerevisiae (strain ATCC 204508 / S288c)) (UniProt P08679). Put plainly: yeast TOR pathway CIT2-GFP reporter potency – flow cytometry, MLPCN hits, dose response (AID 2744). The settings on record: S. cerevisiae CIT2-GFP strain, 3 h, at 33 µM (top of the series). For orientation: Flow cytometry measures light scatter and fluorescence of single cells or particles in a stream.
`CCOc1ccc(N2C(=O)/C(=C\c3cccs3)C(=O)NC2=S)cc1`: the “GFP fluorescence, higher = induction” value was “inactive”. Same read-out and setting: in the case of `O=C(/C=C/c1cccc(Cl)c1)c1nc2ccccc2[nH]1` it was “inactive”; in that of `CCOc1ccc(N/N=C(/C#N)C(N)=O)cc1`, “inactive”; in that of `CN(O)/C=c1/ccc2c(n1)C(=O)C=CC=2`, “inactive”. Same read-out and setting: in the case of `Cc1ccc(C(=O)NNC(=S)NC(=O)c2ccco2)cc1` it was “inactive”; in that of `CC(C)(C)n1nc(-c2ccc(Cl)cc2)c2c(N)ncnc21`, “inactive”; in that of `COc1cc(/C=C/[N+](=O)[O-])ccc1O`, “inactive”. The same measure, in the same setting: the entry for `O=C1NC(=O)N(Cc2ccco2)C(=O)/C1=C/c1ccc(-c2cccc([N+](=O)[O-])c2)o1` is “inactive”; for `O=C(Nc1ccc(NC(=O)c2cc3ccccc3o2)cc1)c1ccc2c(c1)OCCO2` it is “inactive”; for `N#Cc1c2ccc([N+](=O)[O-])cc2[n+]([O-])n1-c1ccccc1` it is “inactive”.

With `Cc1ccccc1[C@@]1(C)ON(c2ccccc2C(F)(F)F)C1=O`, the “GFP fluorescence, higher = induction” value is “inactive”. On the same count and under the same terms, the entry for `COc1ccc(NC(=O)/C(C#N)=C/c2ncc([N+](=O)[O-])n2C)c(OC)c1` is “inactive”; for `O=[N+]([O-])c1cc(O)c2ncccc2c1` it is “inactive”; for `O=C(/C=C/c1ccccn1)c1ccc(Br)cc1O` it is “inactive”.

Regarding `Cc1ccc(S(=O)(=O)/N=C(\Sc2ccccc2)c2ccccc2)cc1`, the “GFP fluorescence, higher = induction” value was “inactive”. On the same count and under the same terms, in the case of `COc1ccc2c(c1)S/C(=C\C(=O)c1ccncc1)N2C` it was “inactive”; in that of `COc1ccc(N2CCN(C(=O)c3ccccc3)CC2)c([N+](=O)[O-])c1`, “inactive”.

As to `O=C1c2sc3nc4ccccc4n3c2C(=O)N1c1ccccc1Cl`, the “GFP fluorescence, higher = induction” value was “inactive”.

Take `O=C1ON=C(c2ccccc2)/C1=C\c1ccco1`: the “GFP fluorescence, higher = induction” value was “inactive”. Still for that read-out and setting: the entry for `COc1ccc(CCNC2=C(Cl)C(=O)N(CCc3ccc(OC)c(OC)c3)C2=O)cc1OC` is “inactive”; for `O=c1[nH]c(-c2ccccn2)nc(C(F)(F)F)c1Br` it is “inactive”; for `CN(C)NC(=S)Nc1ccc(S(=O)(=O)N2CCCCC2)cc1` it is “inactive”. Same read-out and setting: in the case of `O=C(NC(=S)NNC(=O)c1cnccn1)c1ccc(F)cc1` it was “inactive”. On the same count and under the same terms, in the case of `O=C(Nc1nnc(-c2ccc(F)cc2)o1)c1cc(Cl)sc1Cl` it was “inactive”.

Regarding `COc1cccc2c(=O)c(C(=O)NCc3cccs3)c[nH]c12`, the “GFP fluorescence, higher = induction” value was “inactive”. The same measure, in the same setting: the entry for `CCCCCn1c(=O)c(C(=O)Nc2nc3ccccc3[nH]2)c(O)c2ccccc21` is “inactive”; for `N=C1S/C(=C\c2ccco2)C(=O)N1c1nccs1` it is “inactive”; for `Cc1ccc(NC(=O)c2cc(N3C(=O)C=CC3=O)ccc2Cl)cc1C` it is “inactive”. The same measure, in the same setting: the entry for `Oc1ccc(CNc2ccccc2)c2cccnc12` is “inactive”.

Consider `O=C(OCn1ncc(Br)c(Br)c1=O)c1ccccc1Cl`, for which the “GFP fluorescence, higher = induction” value was “inactive”.

With `Cc1ccc(-c2nn(C(C)(C)C)c3ncnc(N)c23)cc1`, the “GFP fluorescence, higher = induction” value is “inactive”. In the case of `O=C(COc1c(Br)cc(Br)c2cccnc12)N1CCc2ccccc2C1`, the “GFP fluorescence, higher = induction” value was “inactive”. On the same count and under the same terms, in the case of `CC(Oc1ccc(Cl)cc1)C(=O)NNC(=S)NC(=O)c1ccco1` (stereo not given) it was “inactive”.

Regarding `CC1=NNC(=O)/C1=C\c1cn(-c2ccccc2)nc1-c1ccccc1`, the “GFP fluorescence, higher = induction” value is “inactive”. On the same count and under the same terms, the entry for `Cc1c(Cc2ccccc2)c(NCCN(C)C)n2c(nc3ccccc32)c1C#N` is “inactive”; for `CCOc1ccc(C(Nc2cccnc2)c2cc(Cl)c3cccnc3c2O)cc1` (stereo not given) it is “inactive”; for `C=CCOc1ccccc1C(=O)/C=C1/C(=O)Nc2ccccc21` it is “inactive”.

Take `COc1ccc(OCC(=O)NNC(=S)NC(=O)C2CCCCC2)cc1`: the “GFP fluorescence, higher = induction” value was “inactive”.

Consider `COc1ccccc1OCCCc1c(C)n[nH]c1C`, for which the “GFP fluorescence, higher = induction” value was “inactive”. As for `C/C(=N\NC(=O)c1cc2ccccc2cc1O)c1ccccn1`, the “GFP fluorescence, higher = induction” value is “inactive”. Same read-out and setting: in the case of `O=C1N(c2ccccc2C(F)(F)F)OC1(Cc1ccccc1)c1ccccc1` (stereo not given) it was “inactive”; in that of `O=[N+]([O-])c1cc(S(=O)(=O)C(F)(F)F)ccc1Sc1nc2ccccc2s1`, “inactive”. The same measure, in the same setting: in the case of `O=C(Nc1nc(-c2ccccn2)cs1)C1COc2ccccc2O1` (stereo not given) it was “inactive”; in that of `O=C1c2ccccc2C(=O)N1OS(=O)(=O)c1ccc(F)cc1`, “inactive”. Still for that read-out and setting: in the case of `Cc1cc(O)c(C(=O)/C=C/c2c(F)c(F)c(F)c(F)c2F)c(=O)o1` it was “inactive”; in that of `O=C(Oc1oc(-c2ccco2)nc1C=Nc1ccc(Cl)cc1)c1ccco1`, “inactive”; in that of `CCCOc1ccc(C(=O)NNC(=S)NC(=O)c2ccccc2)cc1`, “inactive”. As for `CC(C)(C)C(=O)NC(=S)NNC(=O)c1sc2ccccc2c1Cl`, the “GFP fluorescence, higher = induction” value is “inactive”. Still for that read-out and setting: the entry for `COc1ccc2c(c1)c(/C=C/c1cc[n+](C)cc1)cn2C` is “inactive”. Same read-out and setting: in the case of `Oc1c(CN2CCN(c3ccc(F)cc3)CC2)cc(Cl)c2cccnc12` it was “inactive”. For the compound `COc1cccc(N=Nc2ccc(O)c3ncccc23)c1`, the “GFP fluorescence, higher = induction” value was “inactive”.

For the compound `O=C1CC(c2ccccc2)=NN1c1nc(-c2ccccc2)cs1`, the “GFP fluorescence, higher = induction” value is “inactive”.

In the case of `O=C(Nc1ccc(NC(=O)c2cc3ccccc3o2)cc1)c1ccco1`, the “GFP fluorescence, higher = induction” value is “inactive”. The same measure, in the same setting: the entry for `Cc1cc(NC(=O)c2cccnc2Cl)ccc1NC(=O)c1cc2ccccc2o1` is “inactive”. In the case of `O=C(CCc1ccccc1)NNC(=S)NC(=O)c1ccccc1`, the “GFP fluorescence, higher = induction” value is “inactive”. With `C#CCOCCOCCOCCNc1nc(N2CCN(C(=O)CCCCCCCCCCNC(=O)[C@H](CCCCN)n3cc(CCCC(=O)O)nn3)CC2)nc(N2CCN(C(=O)CCCCCCCCCCNC(=O)[C@H](CCCN=C(N)N)n3cc(C[C@@H](C)CC)nn3)CC2)n1`, the “GFP fluorescence, higher = induction” value is “inactive”. Still for that read-out and setting: in the case of `C=CCn1c(C)c(/C=C/c2cc[n+](C)cc2)c2ccccc21` it was “inactive”.

As for `COc1ccc(/C=C/C(=O)c2cc(Br)ccc(=O)c2O)cc1`, the “GFP fluorescence, higher = induction” value is “inactive”. The same measure, in the same setting: the entry for `O=[N+]([O-])c1ccc(O)c2ncccc12` is “inactive”; for `CC1=C/C(=N\OS(=O)(=O)c2ccccc2)C(C)=CC1=O` it is “inactive”. Same read-out and setting: the entry for `O=C1C=CC(=O)N1c1cccc(-c2ccccc2)c1` is “inactive”.

In the case of `Clc1cccc(CN2COc3c(cc(Cl)c4cccnc34)C2)c1`, the “GFP fluorescence, higher = induction” value was “inactive”. For `Cc1cc(C(=O)COC(=O)c2ccc[nH]c2=O)c(C)n1-c1ccccc1F`, the “GFP fluorescence, higher = induction” value was “inactive”. Still for that read-out and setting: the entry for `Cc1nn2c(NCc3ccccn3)c3c(nc2c1-c1ccccc1)CCC3` is “inactive”; for `COc1cc(C=C2C(=O)c3ccccc3C2=O)cc(OC)c1OC` it is “inactive”; for `Cc1ccc(S(=O)(=O)Cc2cc(F)c([N+](=O)[O-])cc2[N+](=O)[O-])cc1` it is “inactive”. The same measure, in the same setting: in the case of `CC(=O)Oc1ccc(N2C(=O)C3C4C=CC(O4)C3C2=O)cc1` (stereo not given) it was “inactive”. Same read-out and setting: in the case of `Cc1cc(/C=C2/SC(=S)N(c3cccc(Cl)c3)C2=O)c(C)n1-c1cccnc1` it was “inactive”; in that of `CS(=O)(=O)c1sc(C#N)c2c1C(=O)CC(c1ccccc1)C2` (stereo not given), “inactive”. In the case of `COc1ccccc1NC1=C(Cl)C(=O)N(c2ccccc2)C1=O`, the “GFP fluorescence, higher = induction” value was “inactive”. Same read-out and setting: the entry for `C[C@@]12C(=O)OC(=O)[C@]1(C)C1CCC2O1` is “inactive”. Still for that read-out and setting: the entry for `O=C(NOC(=O)c1ccccc1)c1ccccc1` is “inactive”; for `Cc1ccccc1OCCOC(=O)c1ccc(S(=O)(=O)N2CCCC2)cc1` it is “inactive”; for `Cc1ccc(NN2C(=O)C=C(c3ccc(Cl)cc3)C2=O)cc1` it is “inactive”. On the same count and under the same terms, in the case of `Cc1ccc(/C=N/Nc2ncc(Cl)cc2Cl)s1` it was “inactive”; in that of `Cc1cc(C)c(S(=O)(=O)ON2C(=O)c3ccccc3C2=O)cc1C`, “inactive”; in that of `COc1ccc(-c2cc3nc4n(c(=O)c3s2)CCC4)cc1`, “inactive”. On to `COc1ccc(N2C(=O)CC(Sc3ncn[nH]3)C2=O)c(OC)c1` (stereo not given), for which the “GFP fluorescence, higher = induction” value is “inactive”. On the same count and under the same terms, the entry for `O=c1cc(CSc2ccc(Cl)cc2)nc(-c2ccccn2)[nH]1` is “inactive”; for `O=C1ON=C(c2ccccc2)/C1=C/c1ccc(-c2ccccc2[N+](=O)[O-])o1` it is “inactive”. The same measure, in the same setting: in the case of `Cc1ccc(C(=O)O)cc1N=Cc1cc(Br)cc(Br)c1O` it was “inactive”; in that of `O=C1c2cccc3c([N+](=O)[O-])ccc(c23)C(=O)N1CCc1ccccn1`, “inactive”.

The test is the same for the next values; noted with them: S. cerevisiae CIT2-GFP strain, flow cytometry fluorescence, 3 h.
As for `O=C(Nc1ccc(Cl)cc1)ON=C1CCCC1`, the EC50 (as a rule, the concentration giving half of the maximal effect) was 1.23 µM.

As for `CCCCC(=O)NNC(=S)NC(=O)c1ccc(C)cc1`, the EC50 is 3.39 µM. Still for that read-out and setting: in the case of `N/C(=N\OC(=O)c1ccc(Cl)cc1Cl)c1ccccc1` it was 4.16 µM.
